The source made the active and inactive calls. No cut-off for these calls is given here.
What was measured:
Assay type in all cases: functional, organism-based
[1] = system: Escherichia coli; test: Quorum sensing activity in Escherichia coli MT102 harbouring pSB403 assessed as activation of acyl-homoserinlactone-related signaling at 0 to 1000 nM after 4 hrs by fluorescence assay
[2] = system: Pseudomonas putida; test: Quorum sensing activity in Pseudomonas putida F117 pKR-C12 assessed as activation of acyl-homoserinlactone-related signaling at 10 ul after 24 hrs by thin-layer chromatography
[3] = system: Pseudomonas putida; test: Quorum sensing activity in Pseudomonas putida F117 pAS-C8 assessed as activation of acyl-homoserinlactone-related signaling at 0 to 1000 nM after 4 hrs by fluorescence assay
[4] = system: Chromobacterium violaceum; test: Quorum sensing activity in Chromobacterium violaceum assessed as activation of acyl-homoserinlactone-related signaling at 0 to 1000 nM after 4 hrs by fluorescence assay
[5] = system: Escherichia coli; test: Inhibition of acyl-homoserinlactone-related quorum sensing activity in Escherichia coli MT102 harbouring pSB403 at 0 to 1000 nM after 4 hrs by fluorescence assay
[6] = system: Pseudomonas putida; test: Inhibition of acyl-homoserinlactone-related quorum sensing activity in Pseudomonas putida F117 pKR-C12 at 10 ul after 24 hrs by thin-layer chromatography
[7] = system: Pseudomonas putida; test: Inhibition of acyl-homoserinlactone-related quorum sensing activity in Pseudomonas putida F117 pAS-C8 at 0 to 1000 nM after 4 hrs by fluorescence assay
[8] = system: Chromobacterium violaceum; test: Inhibition of acyl-homoserinlactone-related quorum sensing activity in Chromobacterium violaceum at 0 to 1000 nM after 4 hrs by fluorescence assay
[9] = system: Myxococcus xanthus DK 1622; test: Inhibition of Myxococcus xanthus DK 1622 growth at 0.5 mg after 72 hrs by agar diffusion assay
[10] = system: Priestia megaterium; test: Antimicrobial activity against Bacillus megaterium at 50 ug/disk by disk diffusion assay
[11] = system: Escherichia coli; test: Antimicrobial activity against Escherichia coli at 50 ug/disk by disk diffusion assay
[12] = system: Aspergillus ruber; test: Antimicrobial activity against Eurotium rubrum at 50 ug/disk by disk diffusion assay
[13] = system: Microbotryum violaceum; test: Antimicrobial activity against Microbotryum violaceum at 50 ug/disk by disk diffusion assay
[14] = system: Mycotypha microspora; test: Antimicrobial activity against Mycotypha microspora at 50 ug/disk by disk diffusion assay
[15] = system: [Chlorella] fusca; test: Antimicrobial activity against Chlorella fusca at 50 ug/disk by disk diffusion assay; details: Scenedesmus fuscus
[16] = system: Plasmodium falciparum; test: Antiplasmodial activity against Plasmodium falciparum

Row | IC50 [16] [µM] | Compound | Activity [1] | Activity [2] | Activity [3] | Activity [4] | Activity [5] | Activity [6] | Activity [7] | Activity [8] | Activity [9] | Activity [10] | Activity [11] | Activity [12] | Activity [13] | Activity [14] | Activity [15]
1 | – | CCCCCCCCCCCCC/C=C\C(=O)N/C=C\c1ccc(O[C@@H]2O[C@@H](C)[C@H](O)[C@@H](O)[C@H]2O)cc1 | inactive | inactive | inactive | inactive | Active | Active | Active | Active | inactive | – | – | – | – | – | –
2 | 7 | CC(C)CCCCCCCCCCC/C=C\C(=O)N/C=C\c1ccc(O[C@@H]2O[C@@H](C)[C@H](O)[C@@H](O)[C@H]2O)cc1 [MYXOTYROSIDE A] | inactive | inactive | inactive | inactive | Active | Active | Active | Active | inactive | inactive | inactive | inactive | inactive | inactive | inactive

Source: ChEMBL document CHEMBL1151807, “Myxotyrosides A and B, Unusual rhamnosides from Myxococcus sp” (J Nat Prod, 2009)
